Experimental data published in patent US20230053152A1, “Novel Quercetin Redox Derivative And Use Thereof As BET Inhibitor” (Benobio Co., Ltd., priority 2019, published 2023).

Assays:
BRD4 (BD1) = molecular target: T1, BRD4 (BD1) (Homo sapiens, UniProt O60885); test: Binding inhibition of BRD4 (BD1), same manner as Test Example 1; details: AlphaScreen, acetyl-histone H4 peptide
T1 construct: on the BRD4 (BD1, BD2, BD1+BD2) protein; GST

BRD4 (BD1 + BD2) = molecular target: T2, BRD4 (BD1 + BD2) (Homo sapiens, UniProt O60885); test: Binding inhibition of BRD4 (BD1+BD2), same manner as Test Example 1; details: AlphaScreen, acetyl-histone H4 peptide
T2 construct: on the BRD4 (BD1, BD2, BD1+BD2) protein; GST

BRD2 (BD1) = molecular target: T3, BRD2 (BD1) (Homo sapiens, UniProt P25440); test: AlphaScreen binding inhibition of GST-BRD2 (BD1) and tetraacetylated histone H4 peptide; details: for IC50: AlphaScreen, acetyl-histone H4 peptide
T3 construct: 100 nM GST-BRD2 (BD1, BD2, BD1+BD2)
T3 sequence (P25440 74-180 limits assumed): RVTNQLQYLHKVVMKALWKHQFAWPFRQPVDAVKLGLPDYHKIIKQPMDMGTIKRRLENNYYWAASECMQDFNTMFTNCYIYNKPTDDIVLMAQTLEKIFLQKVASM

BRD3 (BD1) = molecular target: T4, BRD3 (BD1) (Homo sapiens, UniProt Q15059); test: Binding inhibition of BRD3 (BD1), same manner as Test Example 1; details: AlphaScreen, acetyl-histone H4 peptide
T4 construct: on the BRD3 (BD1, BD2, BD1+BD2) protein; GST
T4 sequence (Q15059 34-140 limits assumed): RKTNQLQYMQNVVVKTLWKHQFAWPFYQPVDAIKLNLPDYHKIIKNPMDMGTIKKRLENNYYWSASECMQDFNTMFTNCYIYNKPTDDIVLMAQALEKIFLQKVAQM

BRD3 (BD1 + BD2) = molecular target: T5, BRD3 (BD1 + BD2) (Homo sapiens, UniProt Q15059); test: Binding inhibition of BRD3 (BD1+BD2), same manner as Test Example 1; details: AlphaScreen, acetyl-histone H4 peptide
T5 construct: on the BRD3 (BD1, BD2, BD1+BD2) protein; GST
T5 sequence (Q15059 34-415 limits assumed): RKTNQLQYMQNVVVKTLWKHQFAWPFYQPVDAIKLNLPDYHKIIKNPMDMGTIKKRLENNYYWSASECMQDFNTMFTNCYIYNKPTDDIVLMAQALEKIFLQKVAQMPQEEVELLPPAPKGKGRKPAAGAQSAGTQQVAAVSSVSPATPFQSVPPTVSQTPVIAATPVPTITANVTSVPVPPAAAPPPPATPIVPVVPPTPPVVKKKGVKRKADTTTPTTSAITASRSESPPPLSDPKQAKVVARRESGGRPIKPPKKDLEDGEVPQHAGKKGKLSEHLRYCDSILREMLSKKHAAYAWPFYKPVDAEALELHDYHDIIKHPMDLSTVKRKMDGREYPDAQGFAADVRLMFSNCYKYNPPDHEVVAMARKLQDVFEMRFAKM

BRD2 (BD1 + BD2) = molecular target: T6, BRD2 (BD1 + BD2) (Homo sapiens, UniProt P25440); test: AlphaScreen binding inhibition of GST-BRD2 (BD1+BD2) and tetraacetylated histone H4 peptide
T6 construct: 100 nM GST-BRD2 (BD1, BD2, BD1+BD2)
T6 sequence (P25440 74-453 limits assumed): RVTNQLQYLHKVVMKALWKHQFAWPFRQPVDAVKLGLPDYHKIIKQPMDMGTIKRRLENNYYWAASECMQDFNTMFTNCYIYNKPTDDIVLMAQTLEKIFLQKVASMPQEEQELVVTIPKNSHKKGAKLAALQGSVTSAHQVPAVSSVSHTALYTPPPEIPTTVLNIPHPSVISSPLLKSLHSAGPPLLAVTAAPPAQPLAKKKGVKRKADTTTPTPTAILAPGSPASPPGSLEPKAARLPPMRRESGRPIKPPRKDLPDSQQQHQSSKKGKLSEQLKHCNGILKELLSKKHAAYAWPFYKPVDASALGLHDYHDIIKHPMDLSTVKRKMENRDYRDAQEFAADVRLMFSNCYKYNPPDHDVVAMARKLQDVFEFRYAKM

BRD3 (BD2) = molecular target: T7, BRD3 (BD2) (Homo sapiens, UniProt Q15059); test: Binding inhibition of BRD3 (BD2), same manner as Test Example 1; details: AlphaScreen, acetyl-histone H4 peptide
T7 construct: on the BRD3 (BD1, BD2, BD1+BD2) protein; GST
T7 sequence (Q15059 306-415 limits assumed): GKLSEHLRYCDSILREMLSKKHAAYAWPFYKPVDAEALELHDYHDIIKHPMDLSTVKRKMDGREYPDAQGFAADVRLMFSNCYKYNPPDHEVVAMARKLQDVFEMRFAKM

BRD2 (BD2) = molecular target: T8, BRD2 (BD2) (Homo sapiens, UniProt P25440); test: AlphaScreen binding inhibition of GST-BRD2 (BD2) and tetraacetylated histone H4 peptide; details: acetyl-histone H4 peptide
T8 construct: 100 nM GST-BRD2 (BD1, BD2, BD1+BD2)
T8 sequence (P25440 344-453 limits assumed): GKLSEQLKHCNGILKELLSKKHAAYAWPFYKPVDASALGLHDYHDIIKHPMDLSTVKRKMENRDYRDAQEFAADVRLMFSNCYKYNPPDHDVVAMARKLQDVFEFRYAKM

| IC50 (BRD2 (BD1)) [µM] | IC50 (BRD3 (BD1)) [µM] | Structure (SMILES) | further results |
| --- | --- | --- | --- |
| 7.03 | 1.46 | O=c1c(O)c(-c2ccc3c(c2)CCCO3)oc2cc(O)cc(O)c12 [BBC0309] | – |
| 2.71 | 1.41 | Cc1cc(-c2oc3cc(O)cc(O)c3c(=O)c2O)cc(C)c1OC1COC1 [BBC0306, 2-[3,5-dimethyl-4-(oxetan-3-yloxy)phenyl]-3,5,7-trihydroxy-chromen-4-one] | IC50 (BRD3 (BD2)): 1.34 µM |
| 10.1 | 3.26 | O=c1c(O)c(-c2ccc3occc3c2)oc2cc(O)cc(O)c12 [BBC0310, 2-(benzofuran-5-yl)-3,5,7-trihydroxy-chromen-4-one] | – |
| 3.69 | 2.64 | O=c1c(O)c(-c2ccc3c(c2)OCC3)oc2cc(O)cc(O)c12 [BBC0312, 2-(2,3-dihydrobenzofuran-6-yl)-3,5,7-trihydroxy-chromen-4-one] | – |
| 18.5 | 9.29 | Cc1cc(-c2oc3cc(O)cc(O)c3c(=O)c2O)cc(OC2COC2)c1O [BBC0307] | IC50 (BRD4 (BD1 + BD2)): 87.3 µM |
| 4.63 | 1.9 | O=c1c(O)c(-c2ccc3ccoc3c2)oc2cc(O)cc(O)c12 [BBC0313, 2-(benzofuran-6-yl)-3,5,7-trihydroxy-chromen-4-one] | IC50 (BRD2 (BD2)): 0.499 µM |
| – | 11.1 | COc1cc(OC)c2c(=O)[nH]c(-c3cc(C)c4c(c3)CCO4)nc2c1 [BBC0406, 5,7-dimethoxy-2-(7-methyl-2,3-dihydrobenzofuran-5-yl)-3H-quinazolin-4-one] | – |
| 5.85 | 7.2 | O=c1c(O)c(-c2ccc3c(c2)CCO3)oc2cc(O)cc(O)c12 [BBC0311, 2-(2,3-dihydrobenzofuran-5-yl)-3,5,7-trihydroxy-chromen-4-one] | IC50 (BRD2 (BD2)): 3.79 µM |

The remaining lines, values behind:

| Structure (SMILES) | IC50 (BRD2 (BD1)) [µM] | IC50 (BRD3 (BD1)) [µM] | further results |
| --- | --- | --- | --- |
| COc1cc(OC)c2[nH]c(-c3cc(C)c(OCCO)c(C)c3)nc2c1 [BBC0206, reference compound] | – | – | IC50 (BRD4 (BD1)): > 50 µM; IC50 (BRD4 (BD1 + BD2)): > 20 µM |
| O=c1c(O)c(-c2ccc3[nH]ccc3c2)oc2cc(O)cc(O)c12 [BBC0114, 3,5,7-trihydroxy-2-(1H-indol-5-yl)chromen-4-one] | 4.14 | 7.98 | IC50 (BRD3 (BD1 + BD2)): 51.3 µM |
| O=c1c(O)c(-c2ccc3[nH]cnc3c2)oc2cc(O)cc(O)c12 [BBC0109, 2-(1H-benzodiimidazol-5-yl)-3,5,7-trihydroxy-4H-chromen-4-one] | 8.63 | – | IC50 value of BRD2 (BD1) as compared to the compound of Comparative Example 1 (BRD2 (BD1); relative to RVX-208): about 30%; IC50 (BRD2 (BD1 + BD2); AlphaScreen, acetyl-histone H4 peptide): 9.7 µM; IC50 value of BRD2 (BD1+BD2) as compared to the compound of Comparative Example 1 (BRD2 (BD1 + BD2); relative to RVX-208): about 30%; IC50 (BRD3 (BD1 + BD2)): 20.8 µM; IC50 (BRD4 (BD1 + BD2)): 15.6 µM |
| COc1cc(OC)c2c(=O)[nH]c(-c3cc(C)c(OCCO)c(C)c3)cc2c1 [BBC0204, reference compound] | – | – | IC50 (BRD4 (BD1)): 35.1 µM; IC50 (BRD4 (BD1 + BD2)): 97.2 µM |
| O=c1[nH]c2ccc(-c3oc4cc(O)cc(O)c4c(=O)c3O)cc2[nH]1 [BBC0110, 5-(3,5,7-trihydroxy-4-oxo-chromen-2-yl)-1,3-dihydrobenzimidazol-2-one] | 9.06 | – | IC50 (BRD3 (BD1 + BD2)): 20.1 µM; IC50 (BRD4 (BD1)): 15.5 µM; IC50 (BRD4 (BD1 + BD2)): 38.6 µM |
| O=c1c(O)c(-c2ccc(O)c(O)c2)oc2cc(O)ccc12 [BBC0105, 2-(3,4-dihydroxyphenyl)-3,7-dihydroxy-chromen-4-one] | 8.88 | – | – |
| Cc1cc(-c2oc3cc(O)cc(O)c3c(=O)c2O)cc(O)c1OC1COC1 [BBC0305, 3,5,7-trihydroxy-2-[3-hydroxy-5-methyl-4-(oxetan-3-yloxy)phenyl]chromen-4-one] | 6.55 | 3 | – |
| O=c1[nH]c2ccc(-c3oc4cc(O)cc(O)c4c(=O)c3O)cc2o1 [BBC0113, 6-(3,5,7-trihydroxy-4-oxo-chromen-2-yl)-3H-1,3-benzoxazol-2-one] | 12.2 | 17.1 | IC50 (BRD2 (BD2)): 5.11 µM |
| O=c1c(O)c(-c2ccc3cc[nH]c3c2)oc2cc(O)cc(O)c12 [BBC0115, 3,5,7-trihydroxy-2-(1H-indol-6-yl)chromen-4-one] | 5.24 | 7.18 | IC50 (BRD3 (BD1 + BD2)): 86 µM |
| O=c1c(O)c(-c2ccc(O)c(OC3COC3)c2)oc2cc(O)cc(O)c12 [BBC0303, 3,5,7-trihydroxy-2-[4-hydroxy-3-(oxetan-3-yloxy)phenyl]chromen-4-one] | 8.35 | 3.18 | IC50 (BRD3 (BD1 + BD2)): 95.6 µM |
| O=c1c(O)c(-c2ccc(O)c(O)c2)oc2cccc(O)c12 [BBC0104, 2-(3,4-dihydroxyphenyl)-3,5-dihydroxy-chromen-4-one] | 8.52 | – | – |
| O=c1c(O)c(-c2ccc(OC3COC3)cc2)oc2cc(O)cc(O)c12 [BBC0302, 3,5,7-trihydroxy-2-[4-(oxetan-3-yloxy)phenyl]chromen-4-one] | 2.4 | – | – |
| O=c1c(O)c(-c2ccc(OC3COC3)c(O)c2)oc2cc(O)cc(O)c12 [BBC0301, 3,5,7-trihydroxy-2-[13-hydroxy-4-(oxetan-3-yloxy)phenyl]chromen-4-one] | 16.9 | – | IC50 (BRD3 (BD1 + BD2)): 29.4 µM; IC50 (BRD4 (BD1 + BD2)): 30.3 µM |
